Among the data in patent publication US9567345B2, “Pharmaceutically active pyrazolo-triazine derivatives” (LEAD DISCOVERY CENTER GMBH, priority 2012, dated 2017) are IC50 values, retold here.

SMILES strings stand for the structures.

In one experiment the target is CDK9/Cyclin T1 (Homo sapiens, UniProt P50750). The experiment in a line: CDK9 Enzymatic Activity Assay (Lance Kinase Activity Assay, FRET). The class given is biochemical. The following applies: Table 5B, class symbols per IC50 [nM] ranges of b581; read-out: CDK9: Selectivity of CDK7 inhibition over CDK9 inhibition. How it is done:
(§1) This protocol describes how the Lance Kinase Activity Assay was performed to determine IC50 values of compounds of general formula (I) against CDK/Cyclin complexes. The principle behind this enzymatic assay is based upon the phosphorylation of the Ulight-Peptide Substrat. It is detected by using a specific EU-labeled anti-phospho peptide antibody.
(§2) Binding of an inhibitor to the kinase prevents phosphorylation of the Ulight-MBP Substrat, resulting in a loss of FRET.
CDK9 Enzymatic Activity Assay
(§3) The compounds of general formula (I) exemplary summarized in Table 1 were diluted from a 10 mM DMSO stock solution 1:10 in a total volume of 15 μl DMSO. This compound predilution was then serial diluted 1:3 over 8 steps in DMSO and briefly spun down. Each compound solution was now diluted 1:20 in Enzymatic Buffer (HEPES: 50 mM, pH: 7.5; MgCl2: 10 mM; EGTA: 1 mM; DTT: 2 mM; Tween-20: 0.01%), mixed thoroughly and spun down.
(§4) For positive controls, 2 μl of DMSO working solution were mixed with 6 μl CDK9/cyclin T1/substrate working solution and 2 μl ATP working solution. Positive and negative controls were calculated from at least 8 different wells. The 384 well plates were mixed in a Teleshaker plate mixer (Beckman Coulter, Brea, Calif., USA) at 2000 rpm for 40 sec, and incubated for 1 h at room temperature before addition of 10 μl LANCE Detection Buffer (1×; EDTA: […]; Eu-Anti-P-MBP: 4 nM) per well. Plates were mixed in a Teleshaker plate mixer (Beckman Coulter, Brea, Calif., USA) at 2000 rpm for 40 sec, followed by incubation with Detection Buffer for 1 h, and reading. […] IC50 values were determined from the sigmoidal dose response curves with the software Quattro Workflow (Quattro GmbH, Munich, Germany).

The target in a further experiment is CDK7/CycH/Mat1 (Homo sapiens, UniProt P50613). As to the kind of experiment: CDK7 Enzymatic Activity Assay (Lance Kinase Activity Assay, FRET). The class given is biochemical. The note with it: CDK7/CycH/Mat1, 25 μM ATP final; class ranges; read-out: CDK7: IC50 [nM] for CDK7 inhibition. How it is done:
as §1, §2
CDK7 Enzymatic Activity Assay
as §3
as §4, with “CDK7/CycH/Mat1/substrate” for “CDK9/cyclin T1/substrate”

Chain of CDK7/CycH/Mat1 (P50613 whole entry): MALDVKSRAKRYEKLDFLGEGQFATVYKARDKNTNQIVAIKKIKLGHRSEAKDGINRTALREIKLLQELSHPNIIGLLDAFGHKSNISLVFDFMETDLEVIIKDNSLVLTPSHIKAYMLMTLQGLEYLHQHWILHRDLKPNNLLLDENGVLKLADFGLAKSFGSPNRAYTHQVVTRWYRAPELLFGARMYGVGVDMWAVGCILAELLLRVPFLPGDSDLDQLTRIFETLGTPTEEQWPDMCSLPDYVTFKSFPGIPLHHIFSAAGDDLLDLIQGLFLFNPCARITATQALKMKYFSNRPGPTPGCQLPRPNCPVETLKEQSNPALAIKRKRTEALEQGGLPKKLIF
Chain of CDK9/Cyclin T1 (P50750 whole entry): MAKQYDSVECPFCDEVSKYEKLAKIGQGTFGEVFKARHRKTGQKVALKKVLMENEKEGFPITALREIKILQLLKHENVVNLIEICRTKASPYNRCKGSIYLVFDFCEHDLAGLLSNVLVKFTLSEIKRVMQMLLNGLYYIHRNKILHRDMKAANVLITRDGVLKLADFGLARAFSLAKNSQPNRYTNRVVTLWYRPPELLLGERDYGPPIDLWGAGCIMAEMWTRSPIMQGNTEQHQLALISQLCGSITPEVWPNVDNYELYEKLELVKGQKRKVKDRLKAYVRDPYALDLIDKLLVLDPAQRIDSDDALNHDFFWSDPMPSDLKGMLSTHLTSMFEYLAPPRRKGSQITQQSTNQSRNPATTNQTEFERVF
Chain of CDK9/Cyclin T1 (O60563 whole entry partner): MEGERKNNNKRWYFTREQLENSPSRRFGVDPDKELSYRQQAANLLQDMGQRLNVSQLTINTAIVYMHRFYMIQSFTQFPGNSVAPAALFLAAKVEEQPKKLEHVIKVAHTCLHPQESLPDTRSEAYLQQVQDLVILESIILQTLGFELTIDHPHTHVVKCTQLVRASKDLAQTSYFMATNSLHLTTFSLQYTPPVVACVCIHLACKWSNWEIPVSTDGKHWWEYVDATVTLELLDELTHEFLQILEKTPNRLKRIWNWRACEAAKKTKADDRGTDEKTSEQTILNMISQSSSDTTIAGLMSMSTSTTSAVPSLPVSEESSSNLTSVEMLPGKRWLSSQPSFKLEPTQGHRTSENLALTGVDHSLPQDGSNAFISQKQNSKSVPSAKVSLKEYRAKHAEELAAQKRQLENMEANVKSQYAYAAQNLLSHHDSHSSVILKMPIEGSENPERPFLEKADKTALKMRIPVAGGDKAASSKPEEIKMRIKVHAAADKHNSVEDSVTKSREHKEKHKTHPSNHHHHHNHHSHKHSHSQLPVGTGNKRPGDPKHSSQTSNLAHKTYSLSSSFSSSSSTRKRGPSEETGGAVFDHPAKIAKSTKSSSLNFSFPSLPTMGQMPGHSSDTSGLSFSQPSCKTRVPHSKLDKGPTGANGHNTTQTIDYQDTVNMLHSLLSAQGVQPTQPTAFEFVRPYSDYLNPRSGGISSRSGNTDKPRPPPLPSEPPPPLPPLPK

With `CC(C)c1cnn2c(NCc3ccccc3-n3cccn3)nc(N3CCC4(CCNC4)C3)nc12` (stereo not shown) [(VIII-03), N-(2-(1H-pyrazol-1-yl)benzyl)-8-isopropyl-2-(2,7-diazaspiro[4.4]nonan-2-yl)pyrazolo[1,5-a][1,3,5]triazin-4-amine], the IC50 at CDK9/Cyclin T1 was more than 2500 nM; at CDK7/CycH/Mat1, less than 5 nM.

For the molecule `CC(C)c1cnn2c(NCc3ccccc3-n3cccn3)nc(N3CCC34CCCNC4)nc12` (stereo not shown) [(VIII-04), N-(2-(1H-pyrazol-1-yl)benzyl)-8-isopropyl-2-(1,6-diazaspiro[3.5]nonan-1-yl)pyrazolo[1,5-a][1,3,5]triazin-4-amine], the IC50 at CDK9/Cyclin T1 is more than 2500 nM; at CDK7/CycH/Mat1 it was 10 to 25 nM.

Consider `CC(C)c1cnn2c(NCc3ccccc3-n3cccn3)nc(N3CC4(CCCNC4)C3)nc12` [(VIII-05), N-(2-(1H-pyrazol-1-yl)benzyl)-8-isopropyl-2-(2,6-diazaspiro[3.5]nonan-2-yl)pyrazolo[1,5-a][1,3,5]triazin-4-amine], for which the results for the IC50 on CDK9/Cyclin T1 and at CDK7/CycH/Mat1 were more than 2500 nM and less than 5 nM, respectively.

Turning to `CC(C)c1cnn2c(NCc3ccccc3-n3cccn3)nc(N3CCC4(CCCCN4)C3)nc12` (stereo not shown) [(VIII-06), N-(2-(1H-pyrazol-1-yl)benzyl)-8-isopropyl-2-(2,6-diazaspiro[4.5]decan-2-yl)pyrazolo[1,5-a][1,3,5]triazin-4-amine], the IC50 at CDK9/Cyclin T1 was more than 2500 nM; at CDK7/CycH/Mat1 it was less than 5 nM.

`CC(C)c1cnn2c(NCc3ccccc3-n3cccn3)nc(N3CCC4(CNC4)C3)nc12` [(VIII-07), N-(2-(1H-pyrazol-1-yl)benzyl)-8-isopropyl-2-(2,6-diazaspiro[3.4]octan-6-yl)pyrazolo[1,5-a][1,3,5]triazin-4-amine]: the figures for the IC50 on CDK9/Cyclin T1 and on CDK7/CycH/Mat1 were more than 2500 nM and less than 5 nM, respectively.

Consider `CC(C)c1cnn2c(NCc3ccccc3-n3cccn3)nc(N3CCC34CNC4)nc12` [(VIII-08), N-(2-(1H-pyrazol-1-yl)benzyl)-8-isopropyl-2-(1,6-diazaspiro[3.3]heptan-1-yl)pyrazolo[1,5-a][1,3,5]triazin-4-amine], for which the IC50 on CDK9/Cyclin T1 was more than 2500 nM; at CDK7/CycH/Mat1, 5 to 10 nM.

Consider `CC(C)c1cnn2c(NCc3ccccc3-n3cccn3)nc(N3CCC4(CCNC4)CC3)nc12` [(VIII-09), N-(2-(1H-pyrazol-1-yl)benzyl)-8-isopropyl-2-(2,8-diazaspiro[4.5]decan-8-yl)pyrazolo[1,5-a][1,3,5]triazin-4-amine], for which the IC50 is more than 2500 nM at CDK9/Cyclin T1 and 5 to 10 nM at CDK7/CycH/Mat1.

As for `CC(C)c1cnn2c(NCc3ccccc3-n3cccn3)nc(N3CC4(CNC4)C3)nc12` [(VIII-10), N-(2-(1H-pyrazol-1-yl)benzyl)-8-isopropyl-2-(2,6-diazaspiro[3.3]heptan-2-yl)pyrazolo[1,5-a][1,3,5]triazin-4-amine], the IC50 was more than 2500 nM on CDK9/Cyclin T1 and 5 to 10 nM on CDK7/CycH/Mat1.

For the molecule `CC(C)c1cnn2c(NCc3ccccc3-n3cccn3)nc(N3CC4(CCNCC4)C3)nc12` [(VIII-12), N-(2-(1H-pyrazol-1-yl)benzyl)-8-isopropyl-2-(2,7-diazaspiro[3.5]nonan-2-yl)pyrazolo[1,5-a][1,3,5]triazin-4-amine], the IC50 is more than 2500 nM at CDK9/Cyclin T1 and less than 5 nM at CDK7/CycH/Mat1.

Take `CC(C)c1cnn2c(NCc3ccccc3-n3cccn3)nc(N3CCCC34CCNC4)nc12` (stereo not shown) [(VIII-13), N-(2-(1H-pyrazol-1-yl)benzyl)-8-isopropyl-2-(1,7-diazaspiro[4.4]nonan-1-yl)pyrazolo[1,5-a][1,3,5]triazin-4-amine]: the IC50 at CDK9/Cyclin T1 was more than 2500 nM; at CDK7/CycH/Mat1, 5 to 10 nM.

Turning to `CC(C)c1cnn2c(NCc3ccccc3-n3cccn3)nc(N3CCCC4(CCCNC4)C3)nc12` (stereo not shown) [(VIII-14), N-(2-(1H-pyrazol-1-yl)benzyl)-8-isopropyl-2-(2,8-diazaspiro[5.5]undecan-2-yl)pyrazolo[1,5-a][1,3,5]triazin-4-amine], the IC50 was more than 2500 nM on CDK9/Cyclin T1 and 10 to 25 nM on CDK7/CycH/Mat1.

As to `CC(C)c1cnn2c(NCc3ccccc3-n3cccn3)nc(N3CCCC4(CCCCN4)C3)nc12` (stereo not shown) [(VIII-15), N-(2-(1H-pyrazol-1-yl)benzyl)-8-isopropyl-2-(1,8-diazaspiro[5.5]undecan-8-yl)pyrazolo[1,5-a][1,3,5]triazin-4-amine], the IC50 at CDK9/Cyclin T1 was more than 2500 nM; on CDK7/CycH/Mat1, 10 to 25 nM.

For `CC(C)c1cnn2c(NCc3ccccc3-n3cccn3)nc(N3CCC4(CC3)CNC4)nc12` [(VIII-16), N-(2-(1H-pyrazol-1-yl)benzyl)-8-isopropyl-2-(2,7-diazaspiro[3.5]nonan-7-yl)pyrazolo[1,5-a][1,3,5]triazin-4-amine], the IC50 at CDK9/Cyclin T1 is more than 2500 nM; at CDK7/CycH/Mat1, less than 5 nM.

For the molecule `CC(C)c1cnn2c(NCc3ccccc3-c3nnnn3C)nc(N3CCC4(CCCN4)CC3)nc12` [(VIII-18), 8-isopropyl-N-(2-(1-methyl-1H-tetrazol-5-yl)benzyl)-2-(1,8-diazaspiro[4.5]decan-8-yl)pyrazolo[1,5-a][1,3,5]triazin-4-amine], the figures for the IC50 at CDK9/Cyclin T1 and on CDK7/CycH/Mat1 were more than 2500 nM and less than 5 nM, respectively.

As for `CC(C)c1cnn2c(NCc3ccccc3-c3nnn(C)n3)nc(N3CCC4(CCCN4)CC3)nc12` [(VIII-19), 8-isopropyl-N-(2-(2-methyl-2H-tetrazol-5-yl)benzyl)-2-(1,8-diazaspiro[4.5]decan-8-yl)pyrazolo[1,5-a][1,3,5]triazin-4-amine], the IC50 on CDK9/Cyclin T1 is more than 2500 nM; on CDK7/CycH/Mat1 it was less than 5 nM.

Turning to `CC(C)c1cnn2c(NCc3ccccc3-n3cccn3)nc(N3CCC4(CCN4)CC3)nc12` [(VIII-20), N-(2-(1H-pyrazol-1-yl)benzyl)-8-isopropyl-2-(1,7-diazaspiro[3.5]nonan-7-yl)pyrazolo[1,5-a][1,3,5]triazin-4-amine], the values for the IC50 on CDK9/Cyclin T1 and at CDK7/CycH/Mat1 were more than 2500 nM and less than 5 nM, respectively.

For `CC(C)c1cnn2c(NCc3ccccc3-n3cccn3)nc(N3CCCC34CCNCC4)nc12` [(VIII-22), N-(2-(1H-pyrazol-1-yl)benzyl)-8-isopropyl-2-(1,8-diazaspiro[4.5]decan-1-yl)pyrazolo[1,5-a][1,3,5]triazin-4-amine], the IC50 on CDK9/Cyclin T1 is more than 2500 nM; on CDK7/CycH/Mat1 it was less than 5 nM.

Regarding `CC(C)c1cnn2c(NCc3ccccc3-n3cccn3)nc(N3CCC4(CCNCC4)CC3)nc12` [(VIII-26), N-(2-(1H-pyrazol-1-yl)benzyl)-8-isopropyl-2-(3,9-diazaspiro[5.5]undecan-3-yl)pyrazolo[1,5-a][1,3,5]triazin-4-amine], the IC50 at CDK9/Cyclin T1 is more than 2500 nM; at CDK7/CycH/Mat1, 5 to 10 nM.

`CC(C)c1cnn2c(NCc3ccccc3-n3cccn3)nc(N3CCC4(CCCNC4)C3)nc12` (stereo not shown) [(VIII-27), N-(2-(1H-pyrazol-1-yl)benzyl)-8-isopropyl-2-(2,7-diazaspiro[4.5]decan-2-yl)pyrazolo[1,5-a][1,3,5]triazin-4-amine]: the IC50 is more than 2500 nM on CDK9/Cyclin T1 and 5 to 10 nM on CDK7/CycH/Mat1.

Consider `CC(C)c1cnn2c(NCc3ccccc3-n3cccn3)nc(N3CCC34CCNC4)nc12` (stereo not shown) [(VIII-28), N-(2-(1H-pyrazol-1-yl)benzyl)-8-isopropyl-2-(1,6-diazaspiro[3.4]octan-1-yl)pyrazolo[1,5-a][1,3,5]triazin-4-amine], for which the IC50 on CDK9/Cyclin T1 is more than 2500 nM; on CDK7/CycH/Mat1, less than 5 nM.

As to `COc1ccccc1[C@H](C)Nc1nc(N[C@@H]2CCCNC2)nc2c(C(C)C)cnn12` [(VIII-31), 8-isopropyl-N4-((S)-1-(2-methoxyphenyl)ethyl)-N2-((R)-piperidin-3-yl)pyrazolo[1,5-a][1,3,5]triazine-2,4-diamine], the IC50 was more than 2500 nM at CDK9/Cyclin T1 and 5 to 10 nM at CDK7/CycH/Mat1.

On to `CC(C)c1cnn2c(NCc3ccccc3-n3cccn3)nc(N3CCC34CCNCC4)nc12` [(VIII-34), N-(2-(1H-pyrazol-1-yl)benzyl)-8-isopropyl-2-(1,7-diazaspiro[3.5]nonan-1-yl)pyrazolo[1,5-a][1,3,5]triazin-4-amine], for which the IC50 was more than 2500 nM on CDK9/Cyclin T1 and less than 5 nM at CDK7/CycH/Mat1.

For the molecule `CC(C)c1cnn2c(NCc3ccccc3S(=O)(=O)N(C)C)nc(N3CCC4(CCCN4)CC3)nc12` [(VIII-35), 2-(((8-isopropyl-2-(1,8-diazaspiro[4.5]decan-8-yl)pyrazolo[1,5-a][1,3,5]triazin-4-yl)amino)methyl)-N,N-dimethylbenzenesulfonamide], the figures for the IC50 on CDK9/Cyclin T1 and on CDK7/CycH/Mat1 were more than 2500 nM and less than 5 nM, respectively.
